Measurements published in patent publication US20060166941A1, “Treatment and/or prevention of non-viral epithelial damage” (Epistem Limited, priority 2003, published 2006).
Where “and” joins values, the source holds several entries; their conditions need not be identical. Equal entries are not always repeated. Structures can show the parent of a compound that is named as a salt.

Columns and labels:
Set-up in all cases: species or system mice
[1] = system: clonogenic stem cells of the digestive epithelium; experiment: In vivo protection of intestinal epithelium clonogenic stem cells, chemotherapy drug (5-Flurouracil) damage
Description: In Vivo Protection of Intestinal Epithelium Clonogenic Stem Cells—Chemotherapy Drug Damage.
The ability of foscarnet (phosphonoformic acid trisodium salt hexahydrate) to prevent cytotoxic damage to clonogenic stem cells of the digestive epithelium was illustrated by the following experiment.
The model of cytotoxic insult used was treatment with 2 doses of 5-Flurouracil 6 hours apart at either 400 mg or 500 mg of 5-Fluorouracil/kilogram bodyweight. Such cytotoxic treatment provides a model of chemotherapy administered to patients undergoing treatment for cancer.
Five experimental groups, each of five mice, were established as set out below:
Group 1: Received intra-peritoneal injection, containing 50 mg foscarnet/kilogram bodyweight, in sterile water, one hour prior to the first cytotoxic treatment (400 mg 5-Flurouracil/kilogram bodyweight). Received one further identical injection on each of the three days following cytotoxic treatment. […]
Group 3: Vehicle control. Received intra-peritoneal injection, of sterile water, one hour prior to both cytotoxic treatments (400 mg 5-Flurouracil/kilogram bodyweight). Received one further identical injection on each of the three days following cytotoxic treatment. […]
(§1) On the fourth day after treatment the animals of each group were killed, and intestinal tissue harvested for histological analysis. Tissue sections were stained with haemotoxylin and eosin, and were analysed for the presence of regenerating intestinal crypts. Regenerating intestinal crypts are derived from one or more surviving clonogenic stem cells, whereas sterilised crypts (containing no surviving stem cells) disappear within two days of irradiation. The number of regenerating crypts per intestinal circumference was counted, and the mean crypt width measured. Scores for each animal were then corrected to account for the probability of preferentially scoring larger crypts according to the following equation: [formula]
(§2) For each treatment a Protection Factor was calculated using the following equation: corrected crypts/circumference treated corrected crypts/circumference untreated (vehicle)

[2] = system: clonogenic stem cells of the digestive epithelium; experiment: In vivo protection of intestinal epithelium clonogenic stem cells, radiation damage, independent experiment 2; settings: for corrected crypts/circumference / no. crypts/circumference: day 4; for Protection Factor: 13Gy, corrected crypts treated / vehicle
Source text: In Vivo Protection of Intestinal Epithelium Clonogenic Stem Cells—Radiation Damage Independent Experiment 2.
The ability of foscarnet (phosphonoformic acid trisodium salt hexahydrate) to prevent radiological damage to clonogenic stem cells of the digestive epithelium was illustrated by the following experiment.
The model of radiological insult used was treatment with 13 Gy X-ray whole body radiation at a dose rate of 0.7 Gy/minute. Such radiation treatment provides a model of radiotherapy administered to patients undergoing treatment for cancer.
Three experimental groups, each of six mice, were established as set out below:
Group 1: Received intra-peritoneal injection, containing 50 mg foscarnet/kilogram bodyweight, in sterile water, one hour prior to radiation treatment. Received one further identical injection on each of the three days following radiation treatment.
Group 2: Received intra-peritoneal injection, containing 25 mg foscarnet/kilogram bodyweight, in sterile water, one hour prior to radiation treatment. Received one further identical injection on each of the three days following radiation treatment.
Group 3: Vehicle control. Received intra-peritoneal injection, of sterile water, one hour prior to radiation treatment. Received one further identical injection on each of the three days following radiation treatment.
as §1, §2

[3] = system: oral mucosa; experiment: In vivo protection of oral mucosa following chemotherapy (5FU) damage, ventral tongue cellularity; settings: 50 mg/kg intra-peritoneal 1 hr prior to 5FU (400 mg/kg x 2) and daily for three days; versus vehicle
Description: In Vivo Protection of Oral Mucosa Following Chemotherapy Damage. The ability of foscarnet (phosphonoformic acid trisodium salt hexahydrate) to prevent cytotoxic damage to oral mucosa was illustrated by the following experiment. The model of cytotoxic insult used was treatment with 2 doses of 400 mg/kilogram bodyweight 5-Flurouracil 6 hours apart. Such cytotoxic treatment provides a model of chemotherapy administered to patients undergoing treatment for cancer. Experimental groups, each of five mice, were established as set out below: Group 2: Received intra-peritoneal injection, containing 50 mg foscarnet/kilogram bodyweight, in sterile water, one hour prior to the first cytotoxic treatment (400 mg 5-Flurouracil/kilogram bodyweight). Received one further identical injection of foscarnet (50 mg/kilogram bodyweight) on each of the three days following cytotoxic treatment. […] Tissue sections were stained with thionin and using a Zeiss AxioHOME the number of cells were assessed in both the basal and suprabasal layers of the ventral surface of the tongue. The area from the basal layer to the stratum corneum stratum granulosum interface was measured along with the length of the basal layer. […] From these measurements the damage that the 5FU had caused to the tongue could be assessed as overall cellularity of the tongue or the total number of cells/unit area (mm^2). […]

[4] = 50 mg foscarnet 1 hr prior to 1st dose of 5-Flurouracil (400 mg/kg x 2 6 hrs apart) and D1, D2, D3, group Average
[5] = 50 mg foscarnet 1 hr prior to 1st dose of 5-Flurouracil (400 mg/kg x 2 6 hrs apart) and D1, D2, D3, individual mice
[6] = 50 mg foscarnet 1 hr prior to both doses of 5-Flurouracil (400 mg/kg x 2 6 hrs apart) and D1, D2, D3, group Average
[7] = 50 mg foscarnet 1 hr prior to both doses of 5-Flurouracil (400 mg/kg x 2 6 hrs apart) and D1, D2, D3, individual mice
[8] = 50 mg foscarnet 1 hr prior to both doses of 5-Flurouracil (500 mg/kg x 2 6 hrs apart) and D1, D2, D3, group Average
[9] = 50 mg foscarnet 1 hr prior to both doses of 5-Flurouracil (500 mg/kg x 2 6 hrs apart) and D1, D2, D3, individual mice
[10] = group 1: 50 mg/kg foscarnet 1 hr prior to first 5-Flurouracil dose (400 mg/kg x 2) and 3 days after
[11] = 13Gy plus 25 mg foscarnet -1 hr, 1, 2, 3 day, group Average
[12] = 13Gy plus 25 mg foscarnet -1 hr, 1, 2, 3 day, individual mice
[13] = 13Gy plus 50 mg foscarnet -1 hr, 1, 2, 3 day, group Average
[14] = 13Gy plus 50 mg foscarnet -1 hr, 1, 2, 3 day, individual mice

Question: How did the “Protection Factor” value ([1]; 50 mg foscarnet 1 hr prior to 1st dose of 5-Flurouracil (400 mg/kg x 2 6 hrs apart) and D1, D2 & D3) turn out when `O=C(O)P(=O)(O)O` [foscarnet, phosphonoformic acid trisodium salt hexahydrate] was run?
Answer: 1.87

Question: What about the corrected crypts/circumference [1, 4] of the same compound?
Answer: 20.0

Question: And the no. crypts/circumference [1, 4]?
Answer: 21.5

Question: What about the corrected crypts/circumference [1, 5] of the same compound?
Answer: 11.0 and 23.2 and 17.2 and 16.5 and 32.1

Question: And the no. crypts/circumference [1, 5]?
Answer: 12.4 and 24.1 and 17.9 (2×) and 35.2

Question: What about the “Protection Factor” value ([1]; 50 mg foscarnet 1 hr prior to both doses of 5-Flurouracil (400 mg/kg x 2 6 hrs apart) and D1, D2 & D3) of the same compound?
Answer: 1.59

Question: What about the corrected crypts/circumference [1, 6] of the same compound?
Answer: 17.0

Question: And the no. crypts/circumference [1, 6]?
Answer: 18.1

Question: What about the corrected crypts/circumference [1, 7] of the same compound?
Answer: 14.3 and 16.3 and 20.6 and 11.4 and 22.5

Question: What about the no. crypts/circumference [1, 7] of the same compound?
Answer: 15.9 and 16.8 and 22.8 and 11.4 and 23.4

Question: What about the “Protection Factor” value ([1]; 50 mg foscarnet 1 hr prior to both doses of 5-Flurouracil (500 mg/kg x 2 6 hrs apart) and D1, D2 & D3) of the same compound?
Answer: 1.46

Question: And the corrected crypts/circumference [1, 8]?
Answer: 10.2

Question: And the no. crypts/circumference [1, 8]?
Answer: 10.5

Question: And the corrected crypts/circumference [1, 9]?
Answer: 8.5 and 13.0 and 16.3 and 5.6 and 7.6

Question: And the no. crypts/circumference [1, 9]?
Answer: 8.5 and 13.0 and 17.9 and 6.0 and 7.3

Question: What about the “numbers of intestinal crypts after exposure to 5-Flurouracil” value ([1]; Groups 1, 2 and 4 (50 mg foscarnet/kg regimens)) of the same compound?
Answer: increased numbers of intestinal crypts

Question: What about the “more crypts compared to mice treated with vehicle alone” value [1, 10] of the same compound?
Answer: ~50%

Question: What about the “more small intestinal clonogenic stem cells survived” value [1, 10] of the same compound?
Answer: at least 50%

Question: And the corrected crypts/circumference [2, 11]?
Answer: 2.8

Question: What about the no. crypts/circumference [2, 11] of the same compound?
Answer: 5.7

Question: What about the corrected crypts/circumference [2, 12] of the same compound?
Answer: 1.4 and 2.0 and 2.7 and 4.4 and 3.0 and 3.3

Question: What about the no. crypts/circumference [2, 12] of the same compound?
Answer: 2.6 and 4.1 and 5.4 and 9.4 and 6.3 and 6.4

Question: And the corrected crypts/circumference [2, 13]?
Answer: 4.7

Question: What about the no. crypts/circumference [2, 13] of the same compound?
Answer: 8.8

Question: And the corrected crypts/circumference [2, 14]?
Answer: 6.5 and 4.4 and 2.7 and 1.9 and 5.4 and 7.5

Question: And the no. crypts/circumference [2, 14]?
Answer: 11.8 and 8.7 and 5.2 and 4.1 and 9.6 and 13.2

Question: What about the “Protection Factor” value ([2]; 25 mg foscarnet -1 hr, 1, 2, 3 day) of the same compound?
Answer: 1.12

Question: What about the “Protection Factor” value ([2]; 50 mg foscarnet -1 hr, 1, 2, 3 day) of the same compound?
Answer: 1.88

Question: And the “more crypts compared to mice treated with vehicle alone” value ([2]; 13 Gy, 50 mg/kg foscarnet)?
Answer: ~50%

Question: And the “more small intestinal clonogenic stem cells survived” value ([2]; 13 Gy, 50 mg/kg foscarnet)?
Answer: at least 50%

Question: And the “numbers of intestinal crypts after exposure to radiation” value ([2]; Groups 1 and 2 (50 mg foscarnet and 25 mg foscarnet), 13 Gy)?
Answer: increased numbers of intestinal crypts

Question: What about the “numbers of cells per unit area in the epithelium covering the ventral surface of the tongue (FIG. 4)” value [3] of the same compound?
Answer: extra cells per unit area gained
